# Assay results reported in US20100144626A1, “Treatment of Multi-Drug Resistant Bacterial Infections” (priority 2006, published 2010).
# Read-outs that look alike come from different tables or passages of the source.
# Tests used:
# Format in all cases: cell-based
# [1] = tested on: Enterococcus faecalis (VRE) E8 VanA; assay: MIC, agar dilution (BSAC guidelines); conditions: E. faecalis (VRE) E8 VanA
# Procedure: (§1) In example experiments miconazole nitrate, was dissolved in methanol and econazole nitrate and clotrimazole were dissolved in DMSO and methanol respectively. Other solvents that may be used include caster oil, pyridine, DMSO and 0.9% saline. For IV administration agents may be solubilised in polyethoxylated caster oil, or cyclodextrins such as sulfobutylether7-βcyclodextrin or hydroxypropyl-β-cyclodextrin and lactic acid. Minimum inhibitory concentrations (MICs) of a range of clinical and control bacterial organisms were measured according to BSAC (British Society for Antimicrobial Chemotherapy) guidelines, described briefly as follows;
# (§2) Preparation of Agar Plates and Broths
# (§3) Stock solutions of each agent were prepared using the formula:
# (§4) Where P=μg of active compound per mg (μg/mg) • V=volume required (mL) • C=final concentration of solution (mg/L) • W=weight of agent (mg) to be dissolved in volume V (mL)
# (§5) Stock solutions were prepared at concentrations of 1000 mg/L and 100 mg/L. The appropriate amounts of each stock solution were added to separate Petri dishes give the following final concentrations (after the addition of 20 mL molten agar): 128, 64, 32, 16, 8, 4, 2, 1, 0.5, 0.25, 0.12, 0.06, 0.03, 0.015 mg/L.
# (§6) Volumes (20 mL) of cooled molten IST agar (oxoid) was added to each Petri dish and mixed by swirling.
# (§7) After drying, the plates were stored at 4° C. and protected from light. Plates were used on the day of preparation.
# (§8) The test organisms were grown overnight in 5 mL IST broth. Using a dilution in 0.9% saline of 1:500 for Gram-negative organisms and 1:100 for Gram-positive organisms, the appropriate agar plates were inoculated using a multipoint inoculator.
# (§9) Plates were incubated at 37° C. in air for 18-20 hours.
# (§10) The MIC is the minimum amount of an antibiotic at which there is no visible growth of bacteria. Tiny single colonies or faint hazes were not counted as growth.
# [2] = tested on: Escherichia coli NCTC 10418; assay: MIC, agar dilution (BSAC guidelines)
# Procedure: as §1, §2, §3, §4, §5, §6, §7, §8, §9, §10
# [3] = tested on: Enterococcus gallinarum (VRE) E1 NCTC 12359 VanC1; assay: MIC, agar dilution (BSAC guidelines)
# Procedure: as §1, §2, §3, §4, §5, §6, §7, §8, §9, §10
# [4] = tested on: Staphylococcus epidermidis ATCC 1228; assay: MIC, agar dilution (BSAC guidelines)
# Procedure: as §1, §2, §3, §4, §5, §6, §7, §8, §9, §10
# [5] = tested on: VISA, strain USA/VISA 5827; assay: MIC, agar dilution (BSAC guidelines); conditions: Staphylococcus aureus
# Procedure: as §1, §2, §3, §4, §5, §6, §7, §8, §9, §10
# [6] = tested on: Enterococcus faecium (VRE) NCTC 7171; assay: MIC, agar dilution (BSAC guidelines)
# Procedure: as §1, §2, §3, §4, §5, §6, §7, §8, §9, §10
# [7] = tested on: Enterococcus faecium (VRE) E15 VanA ATCC 4147; assay: MIC, agar dilution (BSAC guidelines)
# Procedure: as §1, §2, §3, §4, §5, §6, §7, §8, §9, §10
# [8] = tested on: Acinetobacter Baumannii ATCC 19606; assay: MIC, agar dilution (BSAC guidelines)
# Procedure: as §1, §2, §3, §4, §5, §6, §7, §8, §9, §10
# [9] = tested on: Enterococcus faecium (VRE) VanR B145344C LFE; assay: MIC, agar dilution (BSAC guidelines); conditions: E. faecium (VRE) VanR B145344C LFE
# Procedure: as §1, §2, §3, §4, §5, §6, §7, §8, §9, §10
# [10] = tested on: Pseudomonas aeruginosa NCTC 10662; assay: MIC, agar dilution (BSAC guidelines)
# Procedure: as §1, §2, §3, §4, §5, §6, §7, §8, §9, §10
# [11] = tested on: Klebsiella pneumoniae ESBL 700603; assay: MIC, agar dilution (BSAC guidelines)
# Procedure: as §1, §2, §3, §4, §5, §6, §7, §8, §9, §10
# [12] = tested on: Enterococcus faecium (VRE) E19 UAA/522 VanB; assay: MIC, agar dilution (BSAC guidelines); conditions: E. faecium (VRE) E19 UAA/522 VanB
# Procedure: as §1, §2, §3, §4, §5, §6, §7, §8, §9, §10
# [13] = tested on: VISA, strain USA/VISA 5836; assay: MIC, agar dilution (BSAC guidelines); conditions: Staphylococcus aureus
# Procedure: as §1, §2, §3, §4, §5, §6, §7, §8, §9, §10
# [14] = tested on: VISA, strain VISA 3900 UK; assay: MIC, agar dilution (BSAC guidelines); conditions: Staphylococcus aureus
# Procedure: as §1, §2, §3, §4, §5, §6, §7, §8, §9, §10
# [15] = tested on: clinical MRSA and VISA strains; assay: MICs for clinical MRSA and VISA strains; conditions: Staphylococcus aureus; range over strains; read-out: MICs for the clinical MRSA and VISA strains tested
# Procedure: as §1, §5
# The test organisms were grown overnight in 5 mL IST broth. Using a dilution in 0.9% saline of 1:500 for Gram-negative organisms and 1:100 for Gram-positive organisms, the appropriate agar plates were inoculated using a multipoint inoculator. […]
# as §10
# Gram-negative organisms = assay: Growth inhibition, summary of MIC testing; conditions: summary in words
# Procedure: as §1, §5, §8, §9, §10
# [16] = tested on: strains of Staphylococci and Enterococci with reduced susceptibility to vancomycin; assay: Growth inhibition, summary of MIC testing; conditions: summary in words
# Procedure: as §1, §5, §8, §9, §10
# [17] = replicate 1, read-out: Minimum inhibitory concentration (MIC)
# [18] = replicate 2, read-out: Minimum inhibitory concentration (MIC)
# [19] = replicate 3, read-out: Minimum inhibitory concentration (MIC)
smiles,measurement,setting,value
"Clc1ccc(COC(Cn2ccnc2)c2ccc(Cl)cc2Cl)c(Cl)c1 (stereo not shown) [Miconazole, 1-[2-(2,4-dichlorophenyl)-2-[(2,4-dichlorophenyl)methoxy]ethyl]-1H-imidazole]",MIC,[1]; [17],5 µg/mL
same,MIC,[1]; [18],> 6 µg/mL
same,MIC,[1]; [19],> 6 µg/mL
same,MIC,"[2]; NCTC10418, E. coli NCTC 10418, replicate 1, read-out: Minimum inhibitory concentration (MIC)",> 10 µg/mL
same,MIC,"[2]; NCTC10418, E. coli NCTC 10418, replicate 2, read-out: Minimum inhibitory concentration (MIC)",> 6 µg/mL
same,MIC,"[2]; NCTC10418, E. coli NCTC 10418, replicate 3, read-out: Minimum inhibitory concentration (MIC)",> 6 µg/mL
same,MIC,"[3]; E. gallinarum (VRE) E1 NCTC 12359 VanC1, replicate 1, read-out: Minimum inhibitory concentration (MIC)",2 µg/mL
same,MIC,"[3]; E. gallinarum (VRE) E1 NCTC 12359 VanC1, replicate 2, read-out: Minimum inhibitory concentration (MIC)",3 µg/mL
same,MIC,"[3]; E. gallinarum (VRE) E1 NCTC 12359 VanC1, replicate 3, read-out: Minimum inhibitory concentration (MIC)",3.5 µg/mL
same,MIC,"[4]; ATCC1228, S. epidermidis ATCC 1228, replicate 1, read-out: Minimum inhibitory concentration (MIC)",2.5 µg/mL
same,MIC,"[4]; ATCC1228, S. epidermidis ATCC 1228, replicate 2, read-out: Minimum inhibitory concentration (MIC)",2 µg/mL
same,MIC,"[4]; ATCC1228, S. epidermidis ATCC 1228, replicate 3, read-out: Minimum inhibitory concentration (MIC)",2 µg/mL
same,MIC,[5]; [17],1 µg/mL
same,MIC,[5]; [18],2 µg/mL
same,MIC,[5]; [19],1 µg/mL
same,MIC,"[6]; E. faecium (VRE) NCTC 7171, replicate 1, read-out: Minimum inhibitory concentration (MIC)",3.5 µg/mL
same,MIC,"[6]; E. faecium (VRE) NCTC 7171, replicate 2, read-out: Minimum inhibitory concentration (MIC)",6 µg/mL
same,MIC,"[6]; E. faecium (VRE) NCTC 7171, replicate 3, read-out: Minimum inhibitory concentration (MIC)",5.5 µg/mL
same,MIC,"[7]; E. faecium (VRE) E15 VanA ATCC 4147, replicate 1, read-out: Minimum inhibitory concentration (MIC)",1.5 µg/mL
same,MIC,"[7]; E. faecium (VRE) E15 VanA ATCC 4147, replicate 2, read-out: Minimum inhibitory concentration (MIC)",3 µg/mL
same,MIC,"[7]; E. faecium (VRE) E15 VanA ATCC 4147, replicate 3, read-out: Minimum inhibitory concentration (MIC)",3 µg/mL
same,MIC,"[8]; ATCC19606, Acinetobacter Baumannii ATCC 19606, replicate 1, read-out: Minimum inhibitory concentration (MIC)",> 10 µg/mL
same,MIC,"[8]; ATCC19606, Acinetobacter Baumannii ATCC 19606, replicate 2, read-out: Minimum inhibitory concentration (MIC)",> 6 µg/mL
same,MIC,"[8]; ATCC19606, Acinetobacter Baumannii ATCC 19606, replicate 3, read-out: Minimum inhibitory concentration (MIC)",> 6 µg/mL
same,MIC,[9]; [17],2.5 µg/mL
same,MIC,[9]; [18],3 µg/mL
same,MIC,[9]; [19],2.5 µg/mL
same,MIC,"[10]; NCTC10662, P. aeruginosa NCTC 10662, replicate 1, read-out: Minimum inhibitory concentration (MIC)",> 10 µg/mL
same,MIC,"[10]; NCTC10662, P. aeruginosa NCTC 10662, replicate 2, read-out: Minimum inhibitory concentration (MIC)",> 6 µg/mL
same,MIC,"[10]; NCTC10662, P. aeruginosa NCTC 10662, replicate 3, read-out: Minimum inhibitory concentration (MIC)",> 6 µg/mL
same,MIC,"[11]; ESBL700603, K. pneumoniae ESBL 700603, replicate 1, read-out: Minimum inhibitory concentration (MIC)",> 10 µg/mL
same,MIC,"[11]; ESBL700603, K. pneumoniae ESBL 700603, replicate 2, read-out: Minimum inhibitory concentration (MIC)",> 6 µg/mL
same,MIC,"[11]; ESBL700603, K. pneumoniae ESBL 700603, replicate 3, read-out: Minimum inhibitory concentration (MIC)",> 6 µg/mL
same,MIC,[12]; [17],1 µg/mL
same,MIC,[12]; [18],2.5 µg/mL
same,MIC,[12]; [19],2.5 µg/mL
same,MIC,[13]; [17],1 µg/mL
same,MIC,[13]; [18],2.5 µg/mL
same,MIC,[13]; [19],2.5 µg/mL
same,MIC,[14]; [17],1 µg/mL
same,MIC,[14]; [18],1.5 µg/mL
same,MIC,[14]; [19],2 µg/mL
same,MIC,[15],0.25 to 2 µg/mL
same,activity against Gram-negative organisms,Gram-negative organisms,no significant activity
same,activity against strains of Staphylococci and Enterococci with reduced susceptibility to vancomycin,[16],good activity
same,activity against strains of Staphylococci and Enterococci with reduced susceptibility to vancomycin,[16]; listed as miconazole,capable of inhibiting the growth
